Results from patent US11214803B2, “Modulators of YAP1 expression” (Ionis Pharmaceuticals, Inc., priority 2019, dated 2022).
Strand notation (5' to 3'): a small letter for the sugar, then the base; units joined by * are phosphorothioate-linked, units joined directly phosphodiester-linked; [ ] holds rarer units or linkages, { } end groups; capitals alone tell only the bases. k = constrained ethyl (cEt); [5mC] = 5-methylcytosine; d = 2'-deoxy (DNA)

Tested on: Yap1 mRNA
Test: Antisense inhibition of human Yap1 in A-431 cells by cEt gapmers, single dose (Example 3, RTS36584)
Format: cell-based
Conditions: Table 8; A-431 cells, 5,000 cells per well, free uptake, 2,000 nM, approximately 48 hours; RTS36584; normalized to RIBOGREEN; Yap1 mRNA relative to untreated control cells
In short: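 A-431 cells (5,000/well) took up the 3-10-3 cEt gapmers by free uptake at 2,000 nM for about 48 h. Yap1 mRNA was measured by RT-qPCR with primer probe set RTS36584, normalized to RiboGreen total RNA, and given as % of untreated control.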

| Substance | YAP1 (% UTC) |
| --- | --- |
| 958365 (antisense kG*k[5mC]*k[5mC]*dA*dT*dG*dT*dT*dG*dT*dT*dG*dT*k[5mC]*kT*kG) [Compound 958365] | 34 % UTC |
| 958399 (antisense kG*kA*k[5mC]*d[5mC]*dA*dA*d[5mC]*dT*dA*d[5mC]*dT*dT*dG*kA*kA*kG) [Compound 958399] | 45 % UTC |
| 958406 (antisense kT*kT*kT*d[5mC]*dA*dG*dT*dT*dA*dT*d[5mC]*dG*dG*k[5mC]*k[5mC]*k[5mC]) [Compound 958406] | 29 % UTC |
| 958378 (antisense k[5mC]*kA*kT*d[5mC]*dA*dG*dT*dA*d[5mC]*dT*dG*dG*d[5mC]*k[5mC]*kT*kA) [Compound 958378] | 25 % UTC |
| 958410 (antisense kT*kT*kT*dA*d[5mC]*d[5mC]*dA*dA*dA*dA*d[5mC]*dG*dA*kG*kG*kG) [Compound 958410] | 70 % UTC |
| 958415 (antisense k[5mC]*kT*kG*dT*dG*dT*dA*dG*dG*d[5mC]*dT*dG*dA*k[5mC]*kT*kT) [Compound 958415] | 16 % UTC |

Same assay, conditions: Table 9; A-431 cells, 5,000 cells per well, free uptake, 2,000 nM, approximately 48 hours; RTS36584; normalized to RIBOGREEN; Yap1 mRNA relative to untreated control cells

| Substance | YAP1 (% UTC) |
| --- | --- |
| 958811 (k[5mC]*kA*k[5mC]*dT*dG*dA*dG*dG*d[5mC]*dA*d[5mC]*dG*dG*k[5mC]*k[5mC]*k[5mC]; antisense) [Compound 958811] | 92 % UTC |
| 958496 (k[5mC]*k[5mC]*kT*dT*dA*dT*dA*dA*dG*d[5mC]*dT*d[5mC]*d[5mC]*kT*kA*kA; antisense) [Compound 958496] | 3 % UTC |
| 958596 (kA*kG*k[5mC]*dA*dG*dT*dT*dA*dA*dG*d[5mC]*dA*d[5mC]*kT*kT*kT; antisense) [Compound 958596] | 3 % UTC |
| 958616 (antisense kG*kG*kT*dG*dG*dT*d[5mC]*dT*dT*dG*dT*dT*d[5mC]*kT*kT*kA) [Compound 958616] | 10 % UTC |

Same assay, conditions: Table 10; A-431 cells, 5,000 cells per well, free uptake, 2,000 nM oligonucleotide, approx. 48 hours; primer probe set RTS36584; Yap1 mRNA normalized to RIBOGREEN, percent of untreated control

| Substance | YAP1 (% UTC) |
| --- | --- |
| 958457 (antisense kG*kT*k[5mC]*dG*dA*dA*dG*dA*dT*dG*d[5mC]*dT*dG*kA*kG*k[5mC]) [Compound 958457] | 5 % UTC |
| 958577 (kT*k[5mC]*kT*dG*dT*dG*dG*d[5mC]*dT*dA*d[5mC]*dT*dG*kG*k[5mC]*kA; antisense) [Compound 958577] | 4 % UTC |
| 958702 (antisense kT*kG*kA*dT*dG*dT*d[5mC]*dT*dT*dG*dT*d[5mC]*d[5mC]*kA*kG*kA) [Compound 958702] | 16 % UTC |
| 958527 (kG*kT*kA*dA*dG*dT*dA*dA*dG*dA*dA*d[5mC]*dA*kA*kT*k[5mC]; antisense) [Compound 958527] | 4 % UTC |
| 958442 (antisense kG*kG*kA*dG*dA*dA*dG*d[5mC]*dG*dG*d[5mC]*dG*dA*k[5mC]*kG*kG) [Compound 958442] | 21 % UTC |
| 958517 (kT*k[5mC]*kT*dA*dG*dA*dA*d[5mC]*dA*d[5mC]*dT*dA*dA*kA*k[5mC]*kT; antisense) [Compound 958517] | 88 % UTC |
| 958802 (antisense kA*kG*kA*dT*dA*dA*dT*d[5mC]*dA*dT*d[5mC]*d[5mC]*dT*k[5mC]*kA*kA) [Compound 958802] | 25 % UTC |

Same assay, conditions: Table 11; A-431 cells, 5,000 cells per well, free uptake, 2,000 nM oligonucleotide, approx. 48 hours; primer probe set RTS36584; Yap1 mRNA normalized to RIBOGREEN, percent of untreated control

| Substance | YAP1 (% UTC) |
| --- | --- |
| 958468 (antisense kT*kT*kG*dG*dT*dG*dG*d[5mC]*dA*dG*d[5mC]*d[5mC]*dA*kA*kA*kA) [Compound 958468] | 86 % UTC |
| 958768 (antisense kG*kT*kG*d[5mC]*dA*dA*dG*d[5mC]*dA*dG*dG*dT*dT*k[5mC]*k[5mC]*k[5mC]) [Compound 958768] | 17 % UTC |
| 958503 (kA*kA*k[5mC]*d[5mC]*dA*dT*d[5mC]*d[5mC]*d[5mC]*dA*dA*dG*d[5mC]*kT*kA*k[5mC]; antisense) [Compound 958503] | 15 % UTC |
| 958743 (antisense kG*kA*k[5mC]*dT*dA*dT*dA*dA*dA*dG*dG*dG*dT*kT*kT*kA) [Compound 958743] | 30 % UTC |
| 958818 (kG*kT*kT*dG*dT*d[5mC]*dA*dA*d[5mC]*dT*d[5mC]*dT*dA*kG*kG*kG; antisense) [Compound 958818] | 23 % UTC |

Same assay, conditions: Table 12; A-431 cells, 5,000 cells per well, free uptake, 2,000 nM modified oligonucleotide, approx. 48 hours; RTS36584; normalized to RIBOGREEN; Yap1 mRNA relative to untreated control cells

| Substance | YAP1 (% UTC) |
| --- | --- |
| 958759 (antisense kG*k[5mC]*k[5mC]*dT*dA*dT*d[5mC]*dG*d[5mC]*d[5mC]*d[5mC]*d[5mC]*dA*kA*kG*k[5mC]) [Compound 958759] | 61 % UTC |
| 958554 (kA*kA*k[5mC]*d[5mC]*dA*dT*dT*dA*dT*dT*dA*d[5mC]*dT*k[5mC]*k[5mC]*kT; antisense) [Compound 958554] | 1 % UTC |
| 958484 (antisense kG*k[5mC]*kA*dG*d[5mC]*dA*dA*dT*dG*dG*dA*d[5mC]*dA*kA*kG*kG) [Compound 958484] | 2 % UTC |

Same assay, conditions: Table 13; A-431 cells, 5,000 cells per well, free uptake, 2,000 nM modified oligonucleotide, approx. 48 hours; RTS36584; normalized to RIBOGREEN; Yap1 mRNA relative to untreated control cells

| Substance | YAP1 (% UTC) |
| --- | --- |
| 958510 (kT*kA*k[5mC]*d[5mC]*dA*d[5mC]*dA*d[5mC]*dT*dA*dT*dT*dA*kT*kA*kA; antisense) [Compound 958510] | 43 % UTC |
| 958800 (antisense kT*k[5mC]*kG*dA*dT*dA*dA*dT*dA*dT*dA*dT*dG*kG*k[5mC]*kA) [Compound 958800] | 22 % UTC |
| 958535 (kG*kG*kG*dT*d[5mC]*dA*dA*dT*dT*dT*dT*d[5mC]*dA*kG*k[5mC]*kA; antisense) [Compound 958535] | 10 % UTC |
| 958560 (kG*kG*kT*dG*d[5mC]*d[5mC]*dA*d[5mC]*dT*dT*dT*dA*dA*kT*kT*k[5mC]; antisense) [Compound 958560] | 22 % UTC |
| 958710 (antisense kA*kG*kG*dG*dA*dA*d[5mC]*d[5mC]*d[5mC]*dT*dT*dG*dG*k[5mC]*kT*kA) [Compound 958710] | 77 % UTC |

Same assay, conditions: Table 26; Yap1 mRNA by 3-10-3 cEt gapmers targeting SEQ ID NO.: 1, and 2; percent of untreated control

| Substance | YAP1 (% UTC) |
| --- | --- |
| 1075180 (kT*kA*kT*dT*dA*d[5mC]*dT*dA*d[5mC]*dA*dA*d[5mC]*d[5mC]*kA*kT*kA; antisense) [compound 1075180] | 56 % UTC |
| 1075596 (antisense kA*kT*kA*dT*dA*dA*dT*dA*d[5mC]*dA*dT*d[5mC]*dT*k[5mC]*k[5mC]*k[5mC]) [compound 1075596] | 91 % UTC |
| 1074380 (kG*kT*k[5mC]*dT*dG*dG*dG*dA*dA*dA*d[5mC]*dG*dG*kT*kT*k[5mC]; antisense) [compound 1074380] | 11 % UTC |

Same assay, conditions: Table 27; Yap1 mRNA by 3-10-3 cEt gapmers targeting SEQ ID NO.: 1, and 2; percent of untreated control

| Substance | YAP1 (% UTC) |
| --- | --- |
| 1074125 (kG*k[5mC]*kG*dG*d[5mC]*dT*dG*d[5mC]*dG*d[5mC]*d[5mC]*dT*d[5mC]*kG*kG*kG; antisense) [compound 1074125] | 94 % UTC |
| 1074957 (antisense kA*kA*k[5mC]*d[5mC]*d[5mC]*dG*dG*dG*dT*dT*dT*dT*dT*kG*kT*k[5mC]) [compound 1074957] | 102 % UTC |

Same assay, conditions: Table 28; Yap1 mRNA as percent of untreated control; 3-10-3 cEt gapmers targeting SEQ ID NO.: 1, and 2

| Substance | YAP1 (% UTC) |
| --- | --- |
| 1074958 (antisense kT*kA*kA*d[5mC]*d[5mC]*d[5mC]*dG*dG*dG*dT*dT*dT*dT*kT*kG*kT) [compound 1074958] | 107 % UTC |
| 1074670 (antisense kA*kA*kG*dT*dA*dG*d[5mC]*dT*dT*dT*dG*dA*dT*k[5mC]*kT*kT) [compound 1074670] | 49 % UTC |
| 1075342 (antisense kA*k[5mC]*kT*dA*dA*dA*dA*dG*dG*dG*dA*dG*dT*kA*kG*kG) [compound 1075342] | 87 % UTC |

Same assay, conditions: Table 29; Yap1 mRNA as percent of untreated control; 3-10-3 cEt gapmers targeting SEQ ID NO.: 1, and 2

| Substance | YAP1 (% UTC) |
| --- | --- |
| 1075919 (antisense kT*k[5mC]*kT*dT*dA*dA*dA*d[5mC]*dT*dA*dA*d[5mC]*dT*kG*kT*kT) [compound 1075919] | 78 % UTC |
| 1075247 (k[5mC]*kT*kA*dA*dG*dA*dT*dA*dA*d[5mC]*dT*dA*dG*kT*kA*kA; antisense) [compound 1075247] | 101 % UTC |

Same assay, conditions: Table 34; Yap1 mRNA as percent of untreated control; 3-10-3 cEt gapmers targeting SEQ ID NO: 1 and 2; single dose

| Substance | YAP1 (% UTC) |
| --- | --- |
| 1075124 (kG*kT*kA*dA*dA*dA*dA*d[5mC]*d[5mC]*dT*dG*dG*dG*kT*kT*kT; antisense) [compound 1075124] | 58 % UTC |
| 1074324 (antisense kG*k[5mC]*kA*dG*dG*dG*d[5mC]*dT*dA*dA*d[5mC]*dT*d[5mC]*k[5mC]*kT*kG) [compound 1074324] | 116 % UTC |
| 1075316 (antisense kG*kT*kA*dT*dA*dT*dA*dG*dA*dT*dA*d[5mC]*d[5mC]*k[5mC]*kA*k[5mC]) [compound 1075316] | 25 % UTC |
| 1074132 (k[5mC]*kG*kG*d[5mC]*d[5mC]*d[5mC]*d[5mC]*dG*d[5mC]*dA*dT*d[5mC]*d[5mC]*k[5mC]*k[5mC]*k[5mC]; antisense) [compound 1074132] | 96 % UTC |

Same assay, conditions: Table 35; Yap1 mRNA as percent of untreated control; 3-10-3 cEt gapmers targeting SEQ ID NO: 1 and 2; single dose

| Substance | YAP1 (% UTC) |
| --- | --- |
| 1076149 (kT*kT*kA*dT*dT*dA*dA*d[5mC]*dT*d[5mC]*dA*d[5mC]*dG*kA*kA*kG; antisense) [compound 1076149] | 24 % UTC |
| 1076405 (antisense kT*kT*kA*dT*dT*dT*dA*dA*dG*dA*d[5mC]*d[5mC]*dT*kG*kG*kT) [compound 1076405] | 12 % UTC |
